{"source": "patent US11234920B2", "about": "“Manufacturing method of an ascorbic acid dispersion material” (priority 2015, dated 2022)", "assay": "Observation of the crystals using a scanning electron microscope; measurement of the crystal thickness", "type": "physicochemical", "conditions": "scanning electron microscope image", "description": "The ascorbic acid crystals contained in the ascorbic acid dispersion material of the present invention obtained in Examples 1 to 3 were observed using a scanning electron microscope. 3. 5 mL of the ascorbic acid dispersion material of the present invention obtained in Examples 1 to 3 as an analyte and 0.5 g of commercially available ascorbic acid crystal powder were both infused into 20 mL of the dispersion medium prepared in 2, lightly shaken, and mixed. 6. The operations of 4 and 5 were further carried out to remove the solvent component of the ascorbic acid dispersion material of the present invention, following which the operation of 4 was further carried out to precipitate particles of the ascorbic acid, and remove the supernatant, and the particles were dried at a low temperature to obtain particulate powder. […]"}
{"smiles": "O=C1O[C@H]([C@@H](O)CO)C(O)=C1O", "note": "[ascorbic acid crystal powder, ascorbic acid]", "values": [{"measurement": "Crystal shape", "result": "indeterminate crystal shape"}]}
